Holding throughout (assay type): cell-based
Assay [1] relates to Human lymphoma jurkat cells. In words: Killing of cultured Jurkats with and without anti-Fas (propidium iodide, Facs). The note with it: 19 hours. The method, then:
Jurkats are a T-cell derived lymphoma cell line which expresses both FAS receptor and Fas-L. These cells, however, are only mildly sensitive to Fas-L/anti-Fas induced apoptosis. Select compounds were tested for their ability to kill jurkats. Additionally, we investigated the ability of select compounds to sensitize jurkats to anti-Fas mediated apoptosis.
Human lymphoma jurkat cells were cultured in suspension in 24 well plates. Jurkat cell were treated with test compounds either alone or in the presence of suboptimal doses of anti-Fas antibody. […] Cells were incubated with propidium iodide and the percentage of cells that incorporated the stain was counted by Facs.

The subject of assay [2] is Human prostate DU145 cells. Description: Killing of DU145 prostate cancer cells (Alamar Blue, 7 day treatment). The procedure: Prostate cancer is often resistant to traditional chemotherapies. DU145 is representative prostated cancer cell line. DU145 cells were cultured in the presence of various concentrations of compound 136. Compound 136 kills 100% of the cells at 10 μM, with an IC50 of approximately 7 μM.
Human prostate DU145 cells were cultured in 96 well dishes. Cells were treated with various concentrations of test compounds for 7 days. Media was then removed and replaced with fresh media containing Alamar Blue. The cells were incubated for a further 4 hours and Alamar blue and conversion was assessed by fluorescence. Compound effectiveness was determined by assessing the reduction in Alamar blue bioconversion following 7 day treatment.
For orientation: Alamar Blue is a resazurin reagent that responds to reducing activity.

Another assay has as its system Human lung H460 cells. Description: Killing of H460 cells (Alamar Blue, 24 hour treatment). The procedure: H460 is representative of a […] cancer cell line.
Human lung H460 cells (7000 cells/well) were cultured in 96 well dishes. Cells were treated with various concentrations of test compounds for 24 hours. Media was then removed and replaced with fresh media containing Alamar Blue. The cells were incubated for a further 4 hours and Alamar blue and conversion was assessed by fluorescence. Compound effectiveness was determined by assessing the reduction in Alamar blue bioconversion following 24 hour treatment.

Setting [3] is: Dose 3, with anti-Fas (5 ng/mL).
[4] abbreviates: Dose 0.3, with anti-Fas (5 ng/mL).
Setting [5] is: Dose 1, with anti-Fas (5 ng/mL).
Where [6] appears, read: Dose 10, with anti-Fas (5 ng/mL).
[7] abbreviates: Dose 30, with anti-Fas (5 ng/mL).

As to `Cc1cc2ccccc2n1C1=C(c2cn(CCCSC(=N)N)c3ccc(OCc4ccccc4)cc23)C(=O)NC1=O` [Example 150, 3-(3-((amidiothio)propyl)-5-benzyloxyindol-3-yl)-4-(2-methylindol-1-yl)-pyrrole-2,5-dione], the “Survival % Without Anti-Fas” value is reported as over 90% in assay [1] (Dose 3 (μM)) and 0% in assay [1] (Dose 10 (μM)). The “Survival % With Anti-Fas” value in assay [1] (setting [3]) worked out at 5%.

Regarding `N=C(N)SCCCn1c2ccccc2c2c3c(n4c5ccccc5cc4c21)C(=O)NC3=O` [Example 145], the “Survival % Without Anti-Fas” value in assay [1] (Dose 3 (μM)) was 93%; in assay [1] (Dose 10 (μM)), 11%. Besides, the “Survival % With Anti-Fas” value in assay [1] (setting [3]) came to 35%.

Turning to `CN(C)CCCn1cc(C2=C(n3ccc4ccccc43)C(=O)NC2=O)c2cc(OCc3ccccc3)ccc21` [Example 136, 3-(5-benzyloxy-1-(3-dimethylaminopropyl)indol-3-yl)-4-(indol-1-yl)-pyrrole-2,5-dione], in assay [2] (10 μM), the cells killed was 100%. The compound also showed a half-maximal inhibitory concentration (IC50) in assay [2] (Homo sapiens, DU-145, 168 h, 7 days of treatment) of about 7 µM.

Turning to `Cn1cc(C2=C(n3cc(CCCSC(=N)N)c4ccccc43)C(=O)NC2=O)c2ccccc21` [Example 167], the “Survival % Without Anti-Fas” value in assay [1] (Dose 0.3 (μM)) was found to be 98%; in assay [1] (Dose 1 (μM)) it was 88%; in assay [1] (Dose 3 (μM)), 50%; in assay [1] (Dose 10 (μM)) it was 0%; in assay [1] (Dose 30 (μM)) it was 0%. In addition, the “Survival % With Anti-Fas” value in assay [1] (setting [4]) was 43%; in assay [1] (setting [5]), 17%; in assay [1] (setting [3]), 5%; in assay [1] (setting [6]) it was 0%; in assay [1] (setting [7]) it was 0%. In the assay on Human lung H460 cells, this compound showed a half-inhibitory concentration (IC50) of about 3 µM.

As to `N=C(N)SCCCn1cc(C2=C(N3CCc4ccccc43)C(=O)NC2=O)c2ccccc21` [Example 159, 3-(3-((amidiothio)propyl)indol-3-yl)-4-(indolin-1-yl)-pyrrole-2,5-dione], the “Survival % Without Anti-Fas” value in assay [1] (Dose 3 (μM)) is over 90%; in assay [1] (Dose 10 (μM)), 17%. Moreover, in assay [1] (setting [3]), the “Survival % With Anti-Fas” value is 10%.

Turning to `Cc1cn(C2=C(c3cn(CCCSC(=N)N)c4ccccc34)C(=O)NC2=O)c2ccccc12` [Example 146, 3-(3-((amidiothio)propyl)indol-3-yl)-4-(3-methylindol-1-yl)-pyrrole-2,5-dione], the “Survival % Without Anti-Fas” value in assay [1] (Dose 3 (μM)) is recorded as over 90%; in assay [1] (Dose 10 (μM)), 0%. The “Survival % With Anti-Fas” value in assay [1] (setting [3]) was 20%.

As for `Cc1cn(C2=C(c3cn(CCCSC(=N)N)c4ccc(OCc5ccccc5)cc34)C(=O)NC2=O)c2ccccc12` [Example 149, 3-(3-((amidiothio)propyl)-5-benzyloxyindol-3-yl)-4-(3-methylindol-1-yl)-pyrrole-2,5-dione], the “Survival % Without Anti-Fas” value is over 90% in assay [1] (Dose 3 (μM)) and 0% in assay [1] (Dose 10 (μM)). In assay [1] (setting [3]), the “Survival % With Anti-Fas” value is 2%.

As for “3-(3-(amidinothio)propyl)indol-1-yl)-4-(5-benzyloxy-1-methylindol-3-yl)-4-pyrrole-2,5-dione [Example 168]”, the “Survival % Without Anti-Fas” value worked out at 91% in assay [1] (Dose 0.3 (μM)); 89% in assay [1] (Dose 1 (μM)); 46% in assay [1] (Dose 3 (μM)); 1% in assay [1] (Dose 10 (μM)); 0% in assay [1] (Dose 30 (μM)). Besides, the “Survival % With Anti-Fas” value was 49% in assay [1] (setting [4]); 49% in assay [1] (setting [5]); 1% in assay [1] (setting [3]); 0% in assay [1] (setting [6]); 0% in assay [1] (setting [7]).

Take `N=C(N)SCCCn1cc(C2=C(n3ccc4cc(OCc5ccccc5)ccc43)C(=O)NC2=O)c2ccccc21` [Example 147, 3-(3-((amidiothio)propyl)indol-3-yl)-4-(5-benzyloxyindol-1-yl)-pyrrole-2,5-dione]: the “Survival % Without Anti-Fas” value in assay [1] (Dose 3 (μM)) is over 90%; in assay [1] (Dose 10 (μM)) it was 0%. For the same compound, in assay [1] (setting [3]), the “Survival % With Anti-Fas” value is listed as 20%.

Take `N=C(N)SCCCn1cc(C2=C(n3ccc4ccccc43)C(=O)NC2=O)c2cc(OCc3ccccc3)ccc21` [Example 148, 3-(3-((amidiothio)propyl)-5-benzyloxyindol-3-yl)-4-(indol-1-yl)-pyrrole-2,5-dione]: the “Survival % Without Anti-Fas” value in assay [1] (Dose 3 (μM)) is reported as over 90%; in assay [1] (Dose 10 (μM)), 0%. Moreover, the “Survival % With Anti-Fas” value in assay [1] (setting [6]) is 20%.

As a reminder, the IC50 is the point on the concentration scale where inhibition reaches its midpoint. Read a high IC50 as lower potency.
